{"source": "ChEMBL document CHEMBL3507680", "about": "“University of Dundee, Gates Library screen for HepG2 cell viability”"}
{"assay": "Human HepG2 cell viability assay in 384 well format", "format": "toxicity, cell-based", "parameters": "dose 125 nL, time 70.5 hour; concentration not given beside the values", "details": "HepG2 cells, read-out: Inhibition", "units": {"cytotoxicity at 70.5 h": "%"}}
{"smiles": "CCc1nnc(NC(=O)N(CCOC)Cc2ccc(C)o2)s1", "cytotoxicity at 70.5 h": 14.4}
{"smiles": "COC1CCN(S(=O)(=O)N2CCCC2c2ccco2)CC1", "note": "(configuration not stated)", "cytotoxicity at 70.5 h": 0.386}
{"smiles": "CCCN(Cc1ccccc1O)C(=O)Nc1cnn(CCOC)c1", "cytotoxicity at 70.5 h": -12.8}
{"smiles": "CC(C)OC(=O)CC(NC(=O)CCn1cccn1)c1ccccc1", "note": "(configuration not stated)", "cytotoxicity at 70.5 h": 5.59}
{"smiles": "CSC1(CNC(=O)N(C)Cc2ccc(C)s2)CCOCC1", "cytotoxicity at 70.5 h": 15.5}
{"smiles": "CC(NCc1nnc2n1CCCC2)c1nc(Cc2ccccc2)no1", "note": "(configuration not stated)", "cytotoxicity at 70.5 h": -8.89}
{"smiles": "CN(C)C(CNC(=O)OCC(F)(F)F)c1ccsc1", "note": "(configuration not stated)", "cytotoxicity at 70.5 h": -8.54}
{"smiles": "CN(Cc1ccsc1)C(=O)c1nc(N2CCCCC2)ncc1Cl", "cytotoxicity at 70.5 h": -14.3}
{"smiles": "Cc1noc(C)c1CN(C)C(=O)c1nc(N2CCCC2)ncc1Cl", "cytotoxicity at 70.5 h": -11.7}
{"smiles": "CS(=O)(=O)NC1CCN(Cc2coc(-c3ccccc3)n2)CC1", "cytotoxicity at 70.5 h": -9.14}
{"smiles": "CCN1CCC(NC(=O)N(C)Cc2csc3ccccc23)CC1", "cytotoxicity at 70.5 h": -8.41}
{"smiles": "O=C(Nc1ccc(F)cc1F)NC1(CO)CCOCC1", "cytotoxicity at 70.5 h": -4.4}
{"smiles": "c1cnn(C2CN(c3nc(-c4ccncc4)nc4c3CCC4)C2)c1", "cytotoxicity at 70.5 h": -1.27}
{"smiles": "CS(=O)(=O)c1ccccc1NC(=O)N[C@@H]1c2ccccc2C[C@@H]1O", "cytotoxicity at 70.5 h": 12.9}
{"smiles": "CCC(C)c1csc(NC(=O)Cc2csc(-c3nnc[nH]3)n2)n1", "note": "(configuration not stated)", "cytotoxicity at 70.5 h": 9.25}
{"smiles": "CC(C)Oc1ccccc1CNC(=O)N(C)CC(F)F", "cytotoxicity at 70.5 h": -3.01}
{"smiles": "CN(C)C(CNC(=O)CCNC(=O)OCC(F)(F)F)c1ccsc1", "note": "(configuration not stated)", "cytotoxicity at 70.5 h": -0.647}
{"smiles": "CC(NCc1nnc2n1CCCC2)c1nc(C(C)(C)C)no1", "note": "(configuration not stated)", "cytotoxicity at 70.5 h": -13.6}
{"smiles": "CSC1(CNC(=O)NCc2sccc2C)CCOCC1", "cytotoxicity at 70.5 h": 2.45}
{"smiles": "CNC(=O)CCOC(=O)c1cccc(-n2ccc(C(F)(F)F)n2)c1", "cytotoxicity at 70.5 h": 0.427}
{"smiles": "O=C(c1cc(C2CC2)nc2onc(-c3ccccc3)c12)N1CCOCC1", "cytotoxicity at 70.5 h": 18.5}
{"smiles": "COc1cc(Cl)ccc1CNC(=O)N(C)C(C)CS(C)(=O)=O", "note": "(configuration not stated)", "cytotoxicity at 70.5 h": -7.57}
{"smiles": "CCCC(=O)NC1CCCN(c2cncc(Br)c2)C1", "note": "(configuration not stated)", "cytotoxicity at 70.5 h": -10.5}
{"smiles": "CS(=O)(=O)c1ccccc1N[C@@H]1c2ccccc2C[C@@H]1O", "cytotoxicity at 70.5 h": 21.1}
{"smiles": "Cc1nn2cccnc2c1C(=O)NCc1ccccc1OC1CCC1", "cytotoxicity at 70.5 h": -4.01}
{"smiles": "c1cc(NCc2ccsc2)cc(-c2nnc[nH]2)c1", "cytotoxicity at 70.5 h": 1.3}
{"smiles": "Oc1c(F)cc(CNc2cccc(-c3nnc[nH]3)c2)cc1F", "cytotoxicity at 70.5 h": -9.32}
{"smiles": "COC(=O)C(NC(=O)c1ccc(C)cc1C)c1cccnc1", "note": "(configuration not stated)", "cytotoxicity at 70.5 h": -7.04}
{"smiles": "Cn1c(N)nnc1SCc1c(F)cccc1Br", "cytotoxicity at 70.5 h": -3.61}
{"smiles": "Cn1c(CO)nnc1SCc1c(F)cccc1Br", "cytotoxicity at 70.5 h": -5.69}
{"smiles": "Cc1nn2cccnc2c1C(=O)NCc1ccnc(OCC2CC2)c1", "cytotoxicity at 70.5 h": -12.1}
{"smiles": "Cc1noc(CCNC(=O)C2CSCN2C(=O)C2CCCC2)n1", "note": "(configuration not stated)", "cytotoxicity at 70.5 h": -5.54}
{"smiles": "CC1CCN(c2ccc(C(=O)N3CCCC3c3nncn3C)cn2)CC1", "note": "(configuration not stated)", "cytotoxicity at 70.5 h": 8.02}
{"smiles": "CC(C)(C)NC(=O)c1cccc(CN2CCS(=O)(=O)CC2)c1", "cytotoxicity at 70.5 h": -4.97}
{"smiles": "CC(C)c1noc(OCC(=O)N(C)C(C)C)n1", "cytotoxicity at 70.5 h": -12.3}
{"smiles": "CCN(CC)C(=O)COc1nc(C(C)C)no1", "cytotoxicity at 70.5 h": 18.3}
{"smiles": "Cc1nc(CN2CCCN(C(=O)CC(C)n3cccc3)CC2)cs1", "note": "(configuration not stated)", "cytotoxicity at 70.5 h": -12.7}
{"smiles": "O=S(=O)(CCN1CCCCC1Cn1cccn1)c1ccccc1", "note": "(configuration not stated)", "cytotoxicity at 70.5 h": -28.3}
{"smiles": "Cc1cc(C(=O)N(CC2CCCO2)c2ccncc2)c(C)o1", "note": "(configuration not stated)", "cytotoxicity at 70.5 h": -9.47}
{"smiles": "Cc1nn(CC(C)C)c(C)c1CC(=O)N1CCCC(CNS(C)(=O)=O)C1", "note": "(configuration not stated)", "cytotoxicity at 70.5 h": -13.2}
{"smiles": "CC(=O)N(C)C1CCN(C(=O)NCCc2cc(F)ccc2F)CC1", "cytotoxicity at 70.5 h": -13.7}
{"smiles": "N#Cc1cccnc1N1CCC(OCCc2ccccc2)CC1", "cytotoxicity at 70.5 h": -9.51}
{"smiles": "Fc1cccnc1N1CCCC(c2nccs2)C1", "note": "(configuration not stated)", "cytotoxicity at 70.5 h": -5.3}
{"smiles": "CN(Cc1cnn(C)c1)S(=O)(=O)N1CCCCCC1", "cytotoxicity at 70.5 h": -9.53}
{"smiles": "CN(Cc1cnn(C)c1)S(=O)(=O)N1CCc2ccccc2C1", "cytotoxicity at 70.5 h": 7.8}
{"smiles": "CC(=O)NCCC(=O)NCCCOc1c(C)cccc1C", "cytotoxicity at 70.5 h": -6.31}
{"smiles": "CCn1ccnc1CN1CCNCC1C", "note": "(configuration not stated)", "cytotoxicity at 70.5 h": -5.16}
